Data as given in ChEMBL document CHEMBL3085700 (J Med Chem, 2013).
Active and inactive are the calls of the source. The rule behind the calls is not given here.

Assays:
[1] = biological target: T1, Fatty-acid amide hydrolase 1 (Homo sapiens, UniProt O00519); test: Inhibition of human recombinant FAAH overexpressed in African green monkey COS7 cells using [3H]-anandamide as substrate preincubated for 10 mins before substrate addition measured after 10 mins by liquid scintillation counting analysis; format: cell-based, COS-7
T1 sequence (O00519 whole entry): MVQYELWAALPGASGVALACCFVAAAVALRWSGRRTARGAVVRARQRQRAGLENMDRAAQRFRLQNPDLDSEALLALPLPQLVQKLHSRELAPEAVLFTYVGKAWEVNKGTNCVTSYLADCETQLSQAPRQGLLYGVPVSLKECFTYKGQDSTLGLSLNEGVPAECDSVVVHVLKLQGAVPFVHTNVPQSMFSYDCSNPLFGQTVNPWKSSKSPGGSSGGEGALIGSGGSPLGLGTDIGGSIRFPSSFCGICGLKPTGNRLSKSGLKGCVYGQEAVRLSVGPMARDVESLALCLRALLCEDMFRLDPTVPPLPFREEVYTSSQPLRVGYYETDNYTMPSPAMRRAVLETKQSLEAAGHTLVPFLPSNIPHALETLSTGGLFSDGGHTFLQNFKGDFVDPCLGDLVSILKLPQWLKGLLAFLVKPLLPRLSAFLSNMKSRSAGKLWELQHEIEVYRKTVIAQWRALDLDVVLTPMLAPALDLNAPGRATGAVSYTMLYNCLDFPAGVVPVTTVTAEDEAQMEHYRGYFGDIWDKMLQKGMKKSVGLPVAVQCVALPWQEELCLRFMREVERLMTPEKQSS

[2] = biological target: T2, Fatty-acid amide hydrolase 1 (Rattus norvegicus) (UniProt P97612); test: Inhibition of FAAH in rat RBL2H3 cells assessed as blockade of [3H]-anandamide uptake at 0.0001 to 1 uM incubated for 15 mins prior to [3H]-anandamide addition measured after 10 mins by scintillation spectroscopic analysis in presence of JJKK-048; format: cell-based; conditions: RBL-2H3
T2 sequence (whole entry): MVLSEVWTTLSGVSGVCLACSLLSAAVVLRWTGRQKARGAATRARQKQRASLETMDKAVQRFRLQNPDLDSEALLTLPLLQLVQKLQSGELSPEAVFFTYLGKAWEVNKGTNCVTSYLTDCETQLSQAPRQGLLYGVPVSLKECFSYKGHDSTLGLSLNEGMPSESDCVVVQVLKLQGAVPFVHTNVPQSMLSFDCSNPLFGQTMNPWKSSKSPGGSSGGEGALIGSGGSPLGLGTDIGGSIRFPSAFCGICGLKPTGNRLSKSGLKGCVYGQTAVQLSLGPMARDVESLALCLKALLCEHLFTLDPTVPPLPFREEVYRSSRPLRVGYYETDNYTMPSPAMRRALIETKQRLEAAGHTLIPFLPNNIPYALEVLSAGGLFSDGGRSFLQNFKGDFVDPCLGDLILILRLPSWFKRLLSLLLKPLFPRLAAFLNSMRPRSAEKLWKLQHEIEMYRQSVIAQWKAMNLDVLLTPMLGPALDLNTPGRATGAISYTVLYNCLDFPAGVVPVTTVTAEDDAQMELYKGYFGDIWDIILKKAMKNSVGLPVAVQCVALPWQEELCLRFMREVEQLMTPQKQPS

[3] = biological target: T2, Fatty-acid amide hydrolase 1 (Rattus norvegicus); test: Inhibition of FAAH in rat RBL2H3 cells assessed as blockade of [3H]-anandamide uptake at 1 uM incubated for 15 mins prior to [3H]-anandamide addition measured after 10 mins by scintillation spectroscopic analysis; format: cell-based; conditions: RBL-2H3
[4] = biological target: T3, Fatty-acid amide hydrolase 1 (Rattus norvegicus, UniProt P97612); test: Inhibition of FAAH in rat RBL2H3 cells assessed as blockade of [3H]-anandamide uptake incubated for 15 mins prior to [3H]-anandamide addition measured after 10 mins by scintillation spectroscopic analysis; format: cell-based, RBL-2H3
T3 sequence (P97612 whole entry): T2 sequence (whole entry)

[5] = biological target: T4, Lysophosphatidylserine lipase ABHD12 (Homo sapiens) (UniProt Q8N2K0); test: Inhibition of human ABHD12 overexpressed in HEK293 cells assessed as 2-AG hydrolysis at 1 uM by fluorescent glycerol assay; format: cell-based
T4 sequence (whole entry): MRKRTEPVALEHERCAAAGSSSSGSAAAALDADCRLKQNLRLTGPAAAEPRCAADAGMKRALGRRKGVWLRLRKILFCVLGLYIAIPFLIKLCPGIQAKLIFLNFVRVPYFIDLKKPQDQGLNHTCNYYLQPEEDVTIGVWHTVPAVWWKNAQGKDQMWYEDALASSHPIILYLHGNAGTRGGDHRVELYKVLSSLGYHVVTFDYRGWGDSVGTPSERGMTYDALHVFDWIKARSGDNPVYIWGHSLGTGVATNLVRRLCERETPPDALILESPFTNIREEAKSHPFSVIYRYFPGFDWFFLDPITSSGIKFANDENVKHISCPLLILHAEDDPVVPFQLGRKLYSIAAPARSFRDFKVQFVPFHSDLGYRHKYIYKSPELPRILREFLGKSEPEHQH

[6] = biological target: T5, Monoacylglycerol lipase ABHD6 (Homo sapiens) (UniProt Q9BV23); test: Inhibition of human ABHD6 overexpressed in HEK293 cells assessed as 2-AG hydrolysis at 1 uM by fluorescent glycerol assay; format: cell-based
T5 sequence (whole entry): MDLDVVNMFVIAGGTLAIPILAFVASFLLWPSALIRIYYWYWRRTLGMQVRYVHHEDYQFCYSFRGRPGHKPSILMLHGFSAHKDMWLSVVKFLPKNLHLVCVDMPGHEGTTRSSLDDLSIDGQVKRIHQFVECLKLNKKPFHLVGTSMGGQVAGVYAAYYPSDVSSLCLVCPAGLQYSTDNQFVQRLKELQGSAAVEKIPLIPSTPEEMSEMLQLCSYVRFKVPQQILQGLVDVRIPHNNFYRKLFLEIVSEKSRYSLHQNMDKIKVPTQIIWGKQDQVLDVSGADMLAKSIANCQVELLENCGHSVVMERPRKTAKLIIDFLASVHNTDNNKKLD

Monoglyceride lipase = biological target: T6, Monoglyceride lipase (Homo sapiens, UniProt Q99685); test: Inhibition of human recombinant MAGL overexpressed in HEK cells using 2-AG as substrate preincubated for 10 mins before substrate addition measured after 10 mins by HPLC analysis; format: cell-based, HEK293
T6 sequence (Q99685 whole entry): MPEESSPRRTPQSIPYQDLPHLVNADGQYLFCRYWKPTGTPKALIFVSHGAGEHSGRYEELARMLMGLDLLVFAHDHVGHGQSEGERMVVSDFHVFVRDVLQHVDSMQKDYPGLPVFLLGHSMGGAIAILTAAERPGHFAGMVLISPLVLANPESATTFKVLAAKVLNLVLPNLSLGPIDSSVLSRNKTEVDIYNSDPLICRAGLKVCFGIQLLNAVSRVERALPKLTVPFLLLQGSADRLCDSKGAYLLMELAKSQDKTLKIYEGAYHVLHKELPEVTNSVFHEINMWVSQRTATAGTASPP

[7] = biological target: T7, Fatty-acid amide hydrolase 1 (Homo sapiens) (UniProt O00519); test: Reversible inhibition of human recombinant FAAH overexpressed in African green monkey COS7 cells using […] as substrate assessed as recovery of enzyme activity at 20 x IC50 preincubated for 60 mins followed by 500 fold dilution measured after 10 mins by HPLC analysis; format: cell-based; conditions: COS-7
T7 sequence (whole entry): T1 sequence (O00519 whole entry)

[8] = biological target: T7, Fatty-acid amide hydrolase 1 (Homo sapiens); test: Inhibition of human recombinant FAAH overexpressed in African green monkey COS7 cells using [3H]-anandamide as substrate at 30 uM preincubated for 10 to 60 mins by liquid scintillation counting analysis; conditions: COS-7
[9] = biological target: T8, Prostaglandin G/H synthase 2 (Homo sapiens) (UniProt P35354); test: Inhibition of human recombinant COX-2 assessed as inhibition of arachidonic acid cyclooxygenation at 100 uM measured within 10 to 50 secs relative to control
T8 sequence (whole entry): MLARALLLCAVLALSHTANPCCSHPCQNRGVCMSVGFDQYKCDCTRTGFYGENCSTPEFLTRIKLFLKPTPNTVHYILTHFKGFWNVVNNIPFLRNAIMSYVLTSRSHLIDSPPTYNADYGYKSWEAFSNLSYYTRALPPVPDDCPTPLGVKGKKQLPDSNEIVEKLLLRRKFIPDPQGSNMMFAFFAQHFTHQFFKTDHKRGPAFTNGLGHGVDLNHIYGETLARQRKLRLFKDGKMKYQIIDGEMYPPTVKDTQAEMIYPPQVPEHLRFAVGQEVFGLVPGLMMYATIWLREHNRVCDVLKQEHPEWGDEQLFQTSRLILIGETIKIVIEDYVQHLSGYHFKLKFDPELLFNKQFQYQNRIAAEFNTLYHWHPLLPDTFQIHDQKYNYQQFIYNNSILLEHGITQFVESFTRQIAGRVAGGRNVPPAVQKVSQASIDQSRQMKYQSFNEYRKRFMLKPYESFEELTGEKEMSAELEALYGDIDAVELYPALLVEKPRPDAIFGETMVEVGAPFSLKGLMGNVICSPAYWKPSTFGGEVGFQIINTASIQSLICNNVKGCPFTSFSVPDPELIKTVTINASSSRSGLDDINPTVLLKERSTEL

[10] = biological target: T8, Prostaglandin G/H synthase 2 (Homo sapiens); test: Inhibition of human recombinant COX-2 assessed as inhibition of arachidonic acid cyclooxygenation at 30 uM measured within 10 to 50 secs relative to control
[11] = biological target: T8, Prostaglandin G/H synthase 2 (Homo sapiens); test: Inhibition of human recombinant COX-2 assessed as inhibition of arachidonic acid cyclooxygenation at 10 uM measured within 10 to 50 secs relative to control
[12] = biological target: T9, Prostaglandin G/H synthase 1 (Ovis aries) (UniProt P05979); test: Inhibition of ovine COX-1 using arachidonic acid as substrate assessed as oxygen consumption at 100 uM measured within 10 to 50 secs
T9 sequence (whole entry): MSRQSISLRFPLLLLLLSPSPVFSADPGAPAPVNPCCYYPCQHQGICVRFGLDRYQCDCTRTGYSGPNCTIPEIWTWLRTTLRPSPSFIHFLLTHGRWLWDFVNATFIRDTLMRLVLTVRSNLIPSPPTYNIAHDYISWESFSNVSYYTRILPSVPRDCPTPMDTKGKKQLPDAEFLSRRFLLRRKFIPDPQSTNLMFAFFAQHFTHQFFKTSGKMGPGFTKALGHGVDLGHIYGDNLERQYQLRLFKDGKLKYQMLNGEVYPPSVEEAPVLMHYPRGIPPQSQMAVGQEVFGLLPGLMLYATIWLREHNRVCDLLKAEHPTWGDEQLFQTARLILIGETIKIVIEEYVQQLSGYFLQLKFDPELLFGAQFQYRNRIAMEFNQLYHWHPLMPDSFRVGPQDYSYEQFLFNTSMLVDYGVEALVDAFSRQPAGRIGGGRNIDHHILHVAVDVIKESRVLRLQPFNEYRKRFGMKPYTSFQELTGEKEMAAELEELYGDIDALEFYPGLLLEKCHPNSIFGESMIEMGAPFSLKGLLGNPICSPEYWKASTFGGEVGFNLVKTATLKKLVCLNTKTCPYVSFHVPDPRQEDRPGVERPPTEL

[13] = biological target: T9, Prostaglandin G/H synthase 1 (Ovis aries); test: Inhibition of ovine COX-1 using arachidonic acid as substrate assessed as oxygen consumption at 10 uM measured within 10 to 50 secs
[14] = biological target: T8, Prostaglandin G/H synthase 2 (Homo sapiens); test: Inhibition of human recombinant COX-2 assessed as inhibition of 2-AG cyclooxygenation at 100 uM measured within 10 to 50 secs relative to control
[15] = biological target: T8, Prostaglandin G/H synthase 2 (Homo sapiens); test: Inhibition of human recombinant COX-2 assessed as inhibition of 2-AG cyclooxygenation at 30 uM measured within 10 to 50 secs relative to control
[16] = biological target: T8, Prostaglandin G/H synthase 2 (Homo sapiens); test: Inhibition of human recombinant COX-2 assessed as inhibition of 2-AG cyclooxygenation at 10 uM measured within 10 to 50 secs relative to control
[17] = biological target: T9, Prostaglandin G/H synthase 1 (Ovis aries); test: Inhibition of ovine COX-1 using arachidonic acid as substrate assessed as oxygen consumption at 30 uM measured within 10 to 50 secs

Structure (SMILES): COc1nn(C(C)c2ccc(N(c3ccccc3)c3ccccc3)cc2)c(=O)o1 (racemic)
- IC50 ([1]; read-out: IC50): 120 nM
- IC50 ([1]; read-out: pIC50 (converted)): 115 nM
- inhibition [2]: Active
- inhibition [3]: Active
- IC50 [4]: 11 nM
- inhibition [5]: inactive
- inhibition [6]: inactive
- IC50 (Monoglyceride lipase; read-out: IC50): 630 nM

Structure (SMILES): CCCCCCCCCCCC(=O)c1nc2ncccc2o1
- IC50 ([1]; read-out: IC50): 17 nM
- IC50 ([1]; read-out: pIC50 (converted)): 16.6 nM
- inhibition [7]: Active
- inhibition [8]: inactive

Structure (SMILES): COc1nn([C@H](C)c2ccc(CC(C)C)cc2)c(=O)o1
- IC50 ([1]; read-out: IC50): 240 nM
- IC50 ([1]; read-out: pIC50 (converted)): 245 nM
- inhibition [5]: inactive
- inhibition [6]: inactive
- inhibition [9]: 50%
- inhibition [10]: 40%
- inhibition [11]: 30%
- inhibition [12]: 20%
- inhibition [13]: inactive
- inhibition [14]: 30%
- inhibition [15]: 10%
- inhibition [16]: 20%
- inhibition [17]: 10%
- IC50 (Monoglyceride lipase; read-out: IC50): 4000 nM
- IC50 (Monoglyceride lipase; read-out: pIC50 (converted)): 13500 nM
